Patent publication US10457709B2, “Antimicrobial peptides, their variants and uses” (priority 2015, dated 2019)
Square brackets hold non-standard residues; d marks the D form. Ends that are not written are not given here. Peptide text beside a SMILES is read from it.

Experiments:
[1] = system: human erythrocytes; assay type: cell-based
Method: In hemolysis assays, the ability of peptides at 128 μg/ml concentration to lyse human erythrocytes to release hemoglobin was measured. The peptides described here preferably have low hemolytic activity (0.2 to 3.8% hemolysis) in mammal body. […] These peptides are useful as antimicrobial drugs as they show little or no side effects at concentrations needed to kill bacteria.
Minimum inhibition concentrations (MICs) were tested by microbroth dilution method and Chain 104, 105 and 109 inhibited the growth of Escherichia coli (ATCC 25922), Staphylococcus aureus (ATCC 25923), Klebsiella pneumoniae (ATCC 10031) and Pseudomonas aeruginosa (ATCC 27853) between 1-8 μg/ml respectively (Tables 3a, 3b and 3c). The membranolytic activities of the peptides were tested by measuring the release of hemoglobin from erythrocytes of fresh blood donated by voluntiers. Hemoglobin levels were determined spectrometrically by taking OD at 540 nm by following the protocol of Schmidtchen et al., 2011.

[2] = system: Klebsiella pneumoniae (ATCC 10031); assay: microbe, parasite or virus in culture; assay type: cell-based; details: ATCC 10031
Method: (§1) Minimum inhibition concentrations (MICs) were determined against Escherichia coli (ATCC 25922), Staphylococcus aureus (ATCC 25923), Klebsiella pneumoniae (ATCC 10031) and Pseudomonas aeruginosa (ATCC 27853). Also clinical strains of E. coli, K. pneumoniae, E. cloacae, P. aeruginosa, Serratia marcescens, Proteus mirabilis, S. pneumoniae, Acinetobacter baumannii, A. johnsonii and S. aureus were used for MICs assays. Additionally, clinical strains of yeast including Candida albicans, C. glabrata, C. parapsilosis and C. quillermondiae were used. The susceptibility of these microorganisms to Chain peptides were determined using micro broth dilution assay. Colonies of the respective microorganism from Muller Hinton (MH) agar plates incubated overnight were suspended in MH broth media and final concentration of microorganism was adjusted to 5.0×10^5 cfu/ml. An aliquot of 10 μl of each Chain peptide, or gentamicin, tetracycline as reference antibiotics were added in differing concentrations along with 90 μl of bacterial suspension to 96 well polypropylene plates and incubated at 37° C. for 20 to 24 hours. Concentrations of Chain peptides and reference antibiotics ranged from 0.125 to 128 μg/ml and the MICs were recorded as the lowest concentration with no visual growth of bacteria. Similarly, antifungal MICs were tested in Potato dextrose broth.

[3] = system: Escherichia coli (ATCC 25922); assay: microbe, parasite or virus in culture; assay type: cell-based; details: ATCC 25922
Method: as §1

[4] = system: Pseudomonas aeruginosa (ATCC 27853); assay: microbe, parasite or virus in culture; assay type: cell-based; details: ATCC 27853
Method: as §1

[5] = system: Staphylococcus aureus (ATCC 25923); assay: microbe, parasite or virus in culture; assay type: cell-based; details: ATCC 25923
Method: as §1

[6] = up to 45° C. for over 14 days; radial diffusion assay
Method: FIG. 8a. […] Antibacterial activity was tested by aliquoting 20 μg of peptides incubated at different temperature and activity was measured by zone of inhibition. Peptides at −20° C. served as control.
(§2) FIG. 8b. Thermostability of the chain peptides 201 (A-D) and 204 (E-H) tested at various temperatures over a period of 14 days by radial diffusion assay. Antibacterial activity was tested by aliquoting 20 μg of peptides incubated at different temperature and activity was measured by zone of inhibition. Peptides at −20° C. served as control.
as §2, with “8c.” for “8b.”, “306” for “201”, “308” for “204”
(§3) Thermal stability was evaluated by diluting peptides to the concentration of 2 mg/ml in PBS buffer (pH 7.4) and incubating at different temperatures, such as +4° C., 25° C. (RT), 37° C. and 45° C., peptides stored at −20° C. were used as control. After each time interval, 100 μl (2 mg/ml) of peptides were taken and stored at −20° C. for radial diffusion assay to determine the antibacterial activity (FIG. 8). Peptides were also tested by diluting them at different pH values starting from pH 4 to 9. The effect of NaCl on the antimicrobial activity was tested by adding different concentrations (50, 100 and 200 mM) of NaCl to MH medium and the minimum inhibitory concentrations were tested against 4 ATCC bacterial strains.

[7] = pH 4 to 9; radial diffusion assay
Method: FIG. 9a. pH stability of chain peptides 104 and 105 was determined by radial diffusion assay (RDA). Different pH ranging from 4-9 was used to check the zone of inhibition.
FIG. 9b. pH stability of chain peptides 201 and 204 was determined by radial diffusion assay (RDA). Different pH ranging from 4-9 was used to check the zone of inhibition.
FIG. 9c. pH stability of chain peptides 306 and 308 was determined by radial diffusion assay (RDA). Different pH ranging from 4-9 was used to check the zone of inhibition.
as §3

[8] = system: S. aureus COL (MRSA); assay type: cell-based, Staphylococcus aureus
Method: as §1
(§4) Peptides Chain 104, Chain 105, Chain 201, Chain 308, Chain 310 were tested against antibiotic-sensitive strains of S. aureus RN4220 and methicillin resistant strains of S. aureus COL (MRSA). Chain peptides comprising of either L- or D-form amino acids were tested against these bacteria, and the D-form peptides were found have better activity compared to L-form (Table 6). Synergistic activity of chain peptides along with Ertapenem (4 μg/ml) was tested to know whether it will influence the activity against MRSA strains. […] Chain 310 has the best antibacterial activity against the MRSA strains with a MIC of 0.06 & 0.03 μg/ml along with Ertapenem (4 μg/ml) for both forms of L and D-peptides (Table 6).

[9] = system: S. aureus RN4220; assay type: cell-based, Staphylococcus aureus; details: antibiotic sensitive strain S. aureus RN4220
Method: as §1, §4

[10] = system: MRSA strains (S. aureus COL); assay: MIC, synergistic activity with Ertapenem (4 μg/ml); assay type: cell-based, Staphylococcus aureus; details: S. aureus COL, synergistic activity with 4 μg/ml Ertapenem
Method: as §1, §4

RLKWFWLFRKR [Chain307]
Side effects to humans as tested by hemolysis assay [1]: little side effects | Minimum inhibitory concentration, Klebsiella pneumoniae (ATCC 10031) [2]: 16 µg/mL | Minimum inhibitory concentration, Escherichia coli (ATCC 25922) [3]: 8 µg/mL | Minimum inhibitory concentration, Pseudomonas aeruginosa (ATCC 27853) [4]: 1 µg/mL | Minimum inhibitory concentration, Staphylococcus aureus (ATCC 25923) [5]: 4 µg/mL

KRKWRWLFKKL [Chain310]
Side effects to humans as tested by hemolysis assay [1]: little side effects | Minimum inhibitory concentration, Klebsiella pneumoniae (ATCC 10031) [2]: 16 µg/mL | Minimum inhibitory concentration, Escherichia coli (ATCC 25922) [3]: 4 µg/mL | Minimum inhibitory concentration, Pseudomonas aeruginosa (ATCC 27853) [4]: 1 µg/mL | Minimum inhibitory concentration, Staphylococcus aureus (ATCC 25923) [5]: 8 µg/mL

RLKRWRLFRKR [Chain306]
Thermostability (antibacterial activity retained) [6]: not hindered | pH stability (antibacterial activity retained) [7]: not hindered | Minimum inhibitory concentration, Klebsiella pneumoniae (ATCC 10031) [2]: >128 µg/mL | Minimum inhibitory concentration, Escherichia coli (ATCC 25922) [3]: 8 µg/mL | Minimum inhibitory concentration, Pseudomonas aeruginosa (ATCC 27853) [4]: 64 µg/mL | Minimum inhibitory concentration, Staphylococcus aureus (ATCC 25923) [5]: 2 µg/mL

RKWRAMIRLHAKRLRK [Chain104]
Thermostability (antibacterial activity retained) [6]: not hindered | Side effects to humans as tested by hemolysis assay [1]: little side effects | pH stability (antibacterial activity retained) [7]: not hindered

KWIVWRWRFKR [Chain201]
Thermostability (antibacterial activity retained) [6]: not hindered | Side effects to humans as tested by hemolysis assay [1]: little side effects | pH stability (antibacterial activity retained) [7]: not hindered | Minimum inhibitory concentration, Klebsiella pneumoniae (ATCC 10031) [2]: 8 µg/mL | Minimum inhibitory concentration, Escherichia coli (ATCC 25922) [3]: 2 µg/mL | Minimum inhibitory concentration, Pseudomonas aeruginosa (ATCC 27853) [4]: 8 µg/mL | Minimum inhibitory concentration, Staphylococcus aureus (ATCC 25923) [5]: 4 µg/mL

RRLIWRRFKWLR [Chain204]
Thermostability (antibacterial activity retained) [6]: not hindered | Side effects to humans as tested by hemolysis assay [1]: little side effects | pH stability (antibacterial activity retained) [7]: not hindered | Minimum inhibitory concentration, Klebsiella pneumoniae (ATCC 10031) [2]: 32 µg/mL | Minimum inhibitory concentration, Escherichia coli (ATCC 25922) [3]: 2 µg/mL | Minimum inhibitory concentration, Pseudomonas aeruginosa (ATCC 27853) [4]: 4 µg/mL | Minimum inhibitory concentration, Staphylococcus aureus (ATCC 25923) [5]: 16 µg/mL

RLKWFLLFRKR [Chain308]
Thermostability (antibacterial activity retained) [6]: not hindered | Side effects to humans as tested by hemolysis assay [1]: little side effects | pH stability (antibacterial activity retained) [7]: not hindered | Minimum inhibitory concentration, Klebsiella pneumoniae (ATCC 10031) [2]: 4 µg/mL | Minimum inhibitory concentration, Escherichia coli (ATCC 25922) [3]: 1 µg/mL | Minimum inhibitory concentration, Pseudomonas aeruginosa (ATCC 27853) [4]: 2 µg/mL | Minimum inhibitory concentration, Staphylococcus aureus (ATCC 25923) [5]: 4 µg/mL

RKWRAMIRLHAKWLRK [Chain105]
Thermostability (antibacterial activity retained) [6]: not hindered | Side effects to humans as tested by hemolysis assay [1]: little side effects | pH stability (antibacterial activity retained) [7]: not hindered

CC(C)C[C@@H](NC(=O)[C@H](N)CCCNC(=N)N)C(=O)N[C@H](CCCCN)C(=O)N[C@H](Cc1c[nH]c2ccccc12)C(=O)N[C@H](Cc1ccccc1)C(=O)N[C@H](CC(C)C)C(=O)N[C@H](CC(C)C)C(=O)N[C@H](Cc1ccccc1)C(=O)N[C@H](CCCNC(=N)N)C(=O)N[C@H](CCCCN)C(=O)N[C@H](CCCNC(=N)N)C(=O)O [308 D] (H-[dR][dL][dK][dW][dF][dL][dL][dF][dR][dK][dR]-OH)
Minimum inhibitory concentration (MIC), S. aureus COL (MRSA) [8]: 4 µg/mL | Minimum inhibitory concentration (MIC), S. aureus RN4220 [9]: 4 µg/mL | Minimum inhibitory concentration (MIC), S. aureus COL + 4 μg/ml Ertapenem [10]: 1 µg/mL

WWRLHAKWKLW [Chain109]
Side effects to humans as tested by hemolysis assay [1]: little side effects
